Experiment [1] concerns non-small cell lung cancer cell line H460. As to the kind of experiment: H460 proliferation assay in the presence of 3 uM ASP9521 (AKR1C3 specific inhibitor). The experiment is classed as cell-based, human. Conditions: H460 cells, CellTiter-Glo, 72 hours, in the presence of 3 uM ASP9521 added 4 hours prior to compounds; read-out: CTG H460: Avg IC50 (nM) [Assay Condition: ASP9521]. Put shortly:
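AKR1C3 blocked with 3 uM ASP9521 given 4 h ahead of test compounds. H460 cells, plated 24 h earlier, were then treated for 72 h at 37 °C in 5% CO2. CellTiter-Glo luminescence gave viability.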

For experiment [2] the test system is unchanged. As to the kind of experiment: In vitro human cancer cell line cytotoxicity (proliferation) assay in H460, CellTiter-Glo, 72 hours. The experiment is classed as cell-based. Conditions: H460 cells, DMSO condition (no AKR1C3 inhibitor), read-out: CTG H460: Avg IC50 (nM) [Assay Condition: DMSO]. Put shortly:
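IC50s in nM come from CellTiter-Glo viability read after 72 h of compound exposure. Compounds went in from 10 mM DMSO stocks onto H460 cells, which had been plated at 3×10^3 per well and grown 24 h beforehand at 37 °C, 5% CO2.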
For orientation: ATP-based viability assays read luminescence as a measure of living cells.

These results are taken from patent US20260167656A1, “PHOSPHORAMIDATE COMPOUNDS AND USES THEREOF” (ALLORION THERAPEUTICS INC, priority 2022, published 2026).

Usually IC50 stands for the point on the concentration scale where inhibition reaches its midpoint.

Turning to `Cc1cnn(-c2cccc(Oc3c([N+](=O)[O-])ccc4c3CC[C@@H]4OP(=O)(N3CC3)N3CC3)c2)c1` [Example 429], the IC50 in experiment [1] was 1960 nM; in experiment [2] (Homo sapiens, NCI-H460, 72 h) it was less than 10 nM.
Turning to `Cc1cc2cc(Oc3c([N+](=O)[O-])ccc4c3CC[C@H]4OP(=O)(N3CC3)N3CC3)ccc2n1C` [Example 391], the IC50 was 1810 nM in experiment [1] and less than 10 nM in experiment [2] (Homo sapiens, NCI-H460, 72 h).
Take `O=[N+]([O-])c1cc2c(cc1Oc1ccc(-c3ccccn3)cc1)C(OP(=O)(N1CC1)N1CC1)CC2` (single isomer, unassigned) [Example 189]: the IC50 is 1190 nM in experiment [1] and less than 10 nM in experiment [2].
Turning to `CN(C)C(=O)c1ccc(Oc2c([N+](=O)[O-])ccc3c2CCC3OP(=O)(N2CC2)N2CC2)cc1` (single isomer, unassigned) [Example 17], the IC50 in experiment [1] was 758 nM; in experiment [2] (Homo sapiens, NCI-H460, 72 h), 10 to 50 nM.
As to `CN1Cc2ccc(Oc3cc4c(cc3[N+](=O)[O-])OCCC4OP(=O)(N3CC3)N3CC3)cc2C1=O` (centres unmarked) [Example 199, 6-((2-methyl-3-oxoisoindolin-5-yl)oxy)-7-nitrochroman-4-yl di(aziridin-1-yl)phosphinate], the IC50 in experiment [1] is 416 nM; in experiment [2] (Homo sapiens, NCI-H460, 72 h) it was less than 10 nM.
Turning to `C[C@H](OP(=O)(N1CC1)N1CC1)c1cc2cc(Oc3cccc(C(=O)N4CCOCC4)c3)c([N+](=O)[O-])cc2o1` [Example 557], the IC50 is 7310 nM in experiment [1] and 10 to 50 nM in experiment [2].
In the case of `COc1cc(Oc2c([N+](=O)[O-])ccc3c2CC[C@@H]3OP(=O)(N2CC2)N2CC2)cc(-c2ncccn2)c1` [Example 357], the IC50 in experiment [1] was 467 nM; in experiment [2] (Homo sapiens, NCI-H460, 72 h), less than 10 nM.
In the case of `Cc1ncn(-c2cccc(Oc3c([N+](=O)[O-])ccc4c3CC[C@@H]4OP(=O)(N3CC3)N3CC3)c2)n1` [Example 500], the IC50 is 1300 nM in experiment [1] and less than 10 nM in experiment [2] (Homo sapiens, NCI-H460, 72 h).
On to `CNC(=O)c1ccc(Oc2c([N+](=O)[O-])ccc3c2OCCC3OP(=O)(N2CC2)N2CC2)cc1` (centres unmarked) [Example 136], for which the values for the IC50 in experiment [1] and in experiment [2] were 913 nM and 50 to 100 nM, respectively.
On the same counts, the results for `O=C1c2cc(Oc3cc4c(cc3[N+](=O)[O-])CCC4OP(=O)(N3CC3)N3CC3)ccc2CN1C1COC1` (centres unmarked) [Example 163] are 1340 nM and less than 10 nM.
Turning to `Cc1noc(-c2cccc(Oc3c([N+](=O)[O-])ccc4c3CCC4OP(=O)(N3CC3)N3CC3)c2)n1` (centres unmarked) [Example 119], the IC50 in experiment [1] was 644 nM; in experiment [2] (Homo sapiens, NCI-H460, 72 h), less than 10 nM.
As to `O=[N+]([O-])c1ccc2c(c1Oc1ccc(-c3ccc(F)cn3)c(F)c1)CCC2OP(=O)(N1CC1)N1CC1` (centres unmarked) [Example 92], the IC50 in experiment [1] was 1420 nM; in experiment [2], less than 10 nM.
As for `CN(C)C(=O)c1cccc(Oc2c([N+](=O)[O-])ccc3c2OCCC3OP(=O)(N2CC2)N2CC2)c1` (centres unmarked) [Example 128], the IC50 in experiment [1] was 491 nM; in experiment [2] (Homo sapiens, NCI-H460, 72 h), less than 10 nM.
`CNC(=O)c1cccc(Oc2cc3cc(C(C)OP(=O)(N4CC4)N4CC4)oc3cc2[N+](=O)[O-])c1` (centres unmarked) [Example 539]: the IC50 in experiment [1] was 2730 nM; in experiment [2] (Homo sapiens, NCI-H460, 72 h) it was less than 10 nM.
In the case of `Cc1csc(-c2cccc(Oc3c([N+](=O)[O-])ccc4c3CC[C@@H]4OP(=O)(N3CC3)N3CC3)c2)n1` [Example 343], the IC50 in experiment [1] was 2300 nM; in experiment [2] (Homo sapiens, NCI-H460, 72 h), less than 10 nM.
On to `Cc1nc(-c2cccc(Oc3c([N+](=O)[O-])ccc4c3CCC4OP(=O)(N3CC3)N3CC3)c2)no1` (centres unmarked) [Example 88], for which the figures for the half-inhibitory concentration (IC50) in experiment [1] and in experiment [2] were 3570 nM and 50 to 100 nM, respectively.
As for `O=[N+]([O-])c1ccc2c(c1Oc1cccc(-c3noc(C4CC4)n3)c1)CCC2OP(=O)(N1CC1)N1CC1` (centres unmarked) [Example 90], the IC50 was 9470 nM in experiment [1] and no less than 100 nM in experiment [2] (Homo sapiens, NCI-H460, 72 h).
As to `O=[N+]([O-])c1ccc2c(c1Oc1cc(F)cc(-c3ccc(F)cn3)c1)CC[C@@H]2OP(=O)(N1CC1)N1CC1` [Example 358], the IC50 in experiment [1] was 1740 nM; in experiment [2] (Homo sapiens, NCI-H460, 72 h), less than 10 nM.
With `O=[N+]([O-])c1ccc2c(c1Oc1cccc(C3CC3)c1)CCC2OP(=O)(N1CC1)N1CC1` (centres unmarked) [Example 317], the figures for the IC50 in experiment [1] and in experiment [2] were 1010 nM and less than 10 nM, respectively.
